pIC50: −log10 of the molar value. The source made the active and inactive calls. The rule behind the calls is not given here. Peptide text beside a SMILES is read from it.
Columns and labels:
[1] = target: T1, Nicotinic acetylcholine receptor alpha6/alpha3/beta4 (Rattus norvegicus) (UniProt P04757+P12392+P43143); experiment: (§1) Inhibition of rat alpha6/alpha3beta4 nAChR expressed in Stage V-VI Xenopus laevis Oocytes assessed as inhibition of acetylcholine-induced current at 10 uM in presence of acetylcholine by electrophysiological recording; format: cell-based; settings: Oocyte
[2] = target: Nicotinic acetylcholine receptor alpha9/alpha10 (Rattus norvegicus, UniProt P43144+Q9JLB5); experiment: Inhibition of rat alpha9/alpha10 nAChR expressed in Stage V-VI Xenopus laevis Oocytes assessed as inhibition of acetylcholine-induced current in presence of acetylcholine by electrophysiological recording; format: cell-based, Oocyte
[3] = target: Neuronal acetylcholine receptor; alpha4/beta2 (Rattus norvegicus, UniProt P09483+P12390); experiment: Inhibition of rat alpha4/beta2 nAChR expressed in Stage V-VI Xenopus laevis Oocytes assessed as inhibition of acetylcholine-induced current in presence of acetylcholine by electrophysiological recording; format: cell-based, Oocyte
Sequence of Neuronal acetylcholine receptor; alpha4/beta2 (P09483 whole entry): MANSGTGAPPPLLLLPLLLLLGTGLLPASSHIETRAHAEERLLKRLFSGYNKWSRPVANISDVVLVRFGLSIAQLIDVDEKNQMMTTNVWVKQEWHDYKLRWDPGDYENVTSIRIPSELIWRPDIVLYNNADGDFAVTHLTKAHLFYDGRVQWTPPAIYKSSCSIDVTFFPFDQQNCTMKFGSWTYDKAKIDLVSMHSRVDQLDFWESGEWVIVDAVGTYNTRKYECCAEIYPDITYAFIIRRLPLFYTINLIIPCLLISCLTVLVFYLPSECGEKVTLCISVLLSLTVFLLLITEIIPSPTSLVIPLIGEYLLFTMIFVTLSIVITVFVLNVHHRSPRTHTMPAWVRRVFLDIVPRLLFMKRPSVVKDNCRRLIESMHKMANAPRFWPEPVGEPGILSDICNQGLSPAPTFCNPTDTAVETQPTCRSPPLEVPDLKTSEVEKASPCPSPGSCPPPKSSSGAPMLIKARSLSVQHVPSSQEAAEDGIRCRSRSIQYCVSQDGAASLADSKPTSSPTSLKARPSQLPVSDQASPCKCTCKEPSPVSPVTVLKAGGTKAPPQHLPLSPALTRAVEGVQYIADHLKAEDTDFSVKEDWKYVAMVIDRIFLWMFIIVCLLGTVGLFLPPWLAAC
Sequence of Neuronal acetylcholine receptor; alpha4/beta2 (P12390 whole entry): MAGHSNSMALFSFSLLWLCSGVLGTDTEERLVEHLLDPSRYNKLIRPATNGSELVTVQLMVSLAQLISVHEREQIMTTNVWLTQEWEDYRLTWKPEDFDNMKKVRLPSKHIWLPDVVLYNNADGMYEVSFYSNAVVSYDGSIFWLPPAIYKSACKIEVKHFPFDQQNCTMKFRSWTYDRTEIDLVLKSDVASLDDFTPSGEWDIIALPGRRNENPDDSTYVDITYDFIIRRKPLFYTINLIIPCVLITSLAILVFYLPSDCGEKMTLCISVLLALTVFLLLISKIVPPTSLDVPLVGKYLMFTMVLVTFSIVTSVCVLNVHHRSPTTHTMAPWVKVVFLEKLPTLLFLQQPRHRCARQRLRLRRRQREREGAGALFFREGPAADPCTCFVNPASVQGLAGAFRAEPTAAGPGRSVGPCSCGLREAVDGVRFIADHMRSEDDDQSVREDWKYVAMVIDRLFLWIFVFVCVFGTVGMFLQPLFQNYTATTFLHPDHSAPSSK

Rattus norvegicus [4] = organism: Rattus norvegicus; experiment: Selectivity index, ratio of IC50 for rat alpha6/alpha3 D152A mutant beta4 nAChR expressed in Stage V-VI Xenopus laevis oocytes to IC50 for rat alpha6/alpha3beta4 nAChR expressed in Stage V-VI Xenopus laevis Oocytes by electrophysiological recording; format: cell-based
[5] = target: Nicotinic acetylcholine receptor alpha9/alpha10 (Rattus norvegicus) (UniProt P43144+Q9JLB5); experiment: Inhibition of rat alpha9/alpha10 nAChR expressed in Stage V-VI Xenopus laevis Oocytes assessed as inhibition of acetylcholine-induced current at 10 uM in presence of acetylcholine by electrophysiological recording relative to control; format: cell-based; settings: Oocyte
[6] = target: Neuronal acetylcholine receptor; alpha4/beta4 (Rattus norvegicus, UniProt P09483+P12392); experiment: Inhibition of rat alpha4/beta4 nAChR expressed in Stage V-VI Xenopus laevis Oocytes assessed as inhibition of acetylcholine-induced current in presence of acetylcholine by electrophysiological recording; format: cell-based, Oocyte
Sequence of Neuronal acetylcholine receptor; alpha4/beta4 (P09483 whole entry): as the sequence (P09483 whole entry) above
Sequence of Neuronal acetylcholine receptor; alpha4/beta4 (P12392 whole entry): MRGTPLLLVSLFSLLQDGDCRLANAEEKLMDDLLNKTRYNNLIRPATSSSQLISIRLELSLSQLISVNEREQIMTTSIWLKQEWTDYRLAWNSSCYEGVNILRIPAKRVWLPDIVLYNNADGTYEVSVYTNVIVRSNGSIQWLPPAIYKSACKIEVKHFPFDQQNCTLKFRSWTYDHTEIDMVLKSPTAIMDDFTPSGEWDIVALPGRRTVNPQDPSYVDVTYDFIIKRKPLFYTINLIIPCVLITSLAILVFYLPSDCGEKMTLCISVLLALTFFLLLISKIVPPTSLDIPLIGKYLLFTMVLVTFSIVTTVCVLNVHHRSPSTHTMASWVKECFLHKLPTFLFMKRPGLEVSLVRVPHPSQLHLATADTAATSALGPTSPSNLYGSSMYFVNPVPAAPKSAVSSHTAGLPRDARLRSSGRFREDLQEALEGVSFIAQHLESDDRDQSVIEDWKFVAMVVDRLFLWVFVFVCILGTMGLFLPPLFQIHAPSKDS

[7] = target: T1, Nicotinic acetylcholine receptor alpha6/alpha3/beta4 (Rattus norvegicus); experiment: as §1, with “current by measuring recovery time” for “current”, “uM preincubated with compound for 5 mins followed by washout” for “uM”; format: cell-based; settings: Oocyte
[8] = target: Nicotinic acetylcholine receptor alpha6/alpha3/beta4 (Rattus norvegicus, UniProt P04757+P12392+P43143); experiment: Inhibition of rat alpha6/alpha3beta4 nAChR expressed in Stage V-VI Xenopus laevis Oocytes assessed as inhibition of acetylcholine-induced current in presence of acetylcholine by electrophysiological recording; format: cell-based, Oocyte
Oocyte [9] = experiment: (§2) Inhibition of rat alpha6/alpha3 E195A mutant beta4 nAChR expressed in Stage V-VI Xenopus laevis Oocytes assessed as inhibition of acetylcholine-induced current by measuring recovery time at 10 uM preincubated with compound for 5 mins followed by washout in presence of acetylcholine by electrophysiological recording; format: cell-based
[10] = target: Nicotinic acetylcholine receptor alpha6/alpha3/beta2/beta3 (Rattus norvegicus, UniProt P04757+P12390+P12391+P43143); experiment: Inhibition of rat alpha6/alpha3beta2beta3 nAChR expressed in Stage V-VI Xenopus laevis Oocytes assessed as inhibition of acetylcholine-induced current in presence of acetylcholine by electrophysiological recording; format: cell-based, Oocyte
[11] = target: Neuronal acetylcholine receptor; alpha2/beta4 (Rattus norvegicus, UniProt P12389+P12392); experiment: Inhibition of rat alpha2/beta4 nAChR expressed in Stage V-VI Xenopus laevis Oocytes assessed as inhibition of acetylcholine-induced current in presence of acetylcholine by electrophysiological recording; format: cell-based, Oocyte
Sequence of Neuronal acetylcholine receptor; alpha2/beta4 (P12389 whole entry): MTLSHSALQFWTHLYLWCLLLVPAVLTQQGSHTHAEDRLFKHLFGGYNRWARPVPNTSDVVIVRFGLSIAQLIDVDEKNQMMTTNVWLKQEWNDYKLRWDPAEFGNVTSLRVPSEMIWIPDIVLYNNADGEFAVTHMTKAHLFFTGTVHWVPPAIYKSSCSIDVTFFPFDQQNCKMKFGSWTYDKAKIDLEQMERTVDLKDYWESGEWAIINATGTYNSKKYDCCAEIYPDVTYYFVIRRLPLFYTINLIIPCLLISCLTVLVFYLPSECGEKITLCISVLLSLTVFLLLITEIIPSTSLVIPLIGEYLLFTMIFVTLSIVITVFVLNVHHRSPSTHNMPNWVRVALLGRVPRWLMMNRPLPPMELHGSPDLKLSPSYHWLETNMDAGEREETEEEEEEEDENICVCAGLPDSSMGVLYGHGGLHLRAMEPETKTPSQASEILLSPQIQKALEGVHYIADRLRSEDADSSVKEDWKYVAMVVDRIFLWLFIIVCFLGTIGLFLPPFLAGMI
Sequence of Neuronal acetylcholine receptor; alpha2/beta4 (P12392 whole entry): as the sequence (P12392 whole entry) above

[12] = Inhibition of rat alpha6/alpha3beta4 I166S mutant nAChR expressed in Stage V-VI Xenopus laevis Oocytes assessed as inhibition of acetylcholine-induced current in presence of acetylcholine by electrophysiological recording; format: cell-based; settings: Oocyte
Rattus norvegicus [13] = organism: Rattus norvegicus; experiment: Selectivity index, ratio of IC50 for rat alpha6/alpha3beta4 E34M mutant nAChR expressed in Stage V-VI Xenopus laevis oocytes to IC50 for rat alpha6/alpha3beta4 nAChR expressed in Stage V-VI Xenopus laevis Oocytes by electrophysiological recording; format: cell-based
Oocyte [14] = experiment: as §2, with “T59K” for “E195A”; format: cell-based
[15] = Inhibition of rat alpha6/alpha3 D152A mutant beta4 nAChR expressed in Stage V-VI Xenopus laevis Oocytes assessed as inhibition of acetylcholine-induced current in presence of acetylcholine by electrophysiological recording; format: cell-based; settings: Oocyte
[16] = target: Nicotinic acetylcholine receptor alpha6/alpha3/beta2/beta3 (Rattus norvegicus) (UniProt P04757+P12390+P12391+P43143); experiment: Inhibition of rat alpha6/alpha3beta2beta3 nAChR expressed in Stage V-VI Xenopus laevis Oocytes assessed as inhibition of acetylcholine-induced current at 10 uM in presence of acetylcholine by electrophysiological recording relative to control; format: cell-based; settings: Oocyte
Rattus norvegicus [17] = organism: Rattus norvegicus; experiment: Selectivity index, ratio of IC50 for rat alpha6/alpha3beta4 K57T mutant nAChR expressed in Stage V-VI Xenopus laevis oocytes to IC50 for rat alpha6/alpha3beta4 nAChR expressed in Stage V-VI Xenopus laevis Oocytes by electrophysiological recording; format: cell-based
Oocyte [18] = experiment: Inhibition of rat alpha6/alpha3 D152A mutant beta4 nAChR expressed in Stage V-VI Xenopus laevis Oocytes assessed as acetylcholine-induced current response at 100 nM in presence of 100 uM acetylcholine by electrophysiological recording relative to control; format: cell-based; parameters: scale not given: the % may be the effect or the level left
Oocyte [19] = experiment: Inhibition of rat alpha6/alpha3beta4 K57T mutant nAChR expressed in Stage V-VI Xenopus laevis Oocytes assessed as acetylcholine-induced current response at 1 uM in presence of 100 uM acetylcholine by electrophysiological recording relative to control; format: cell-based
Rattus norvegicus [20] = organism: Rattus norvegicus; experiment: Inhibition of rat alpha6/alpha3 E195A mutant beta4 nAChR expressed in Stage V-VI Xenopus laevis Oocytes assessed as acetylcholine-induced current response at 1 uM in presence of 100 uM acetylcholine by electrophysiological recording relative to control; format: cell-based
[21] = target: Nicotinic acetylcholine receptor alpha1/beta1/epsilon/delta (Mus musculus, UniProt P02716+P04756+P09690+P20782); experiment: Inhibition of mouse alpha1/beta1deltaepsilon nAChR expressed in Stage V-VI Xenopus laevis Oocytes assessed as inhibition of acetylcholine-induced current in presence of acetylcholine by electrophysiological recording; format: cell-based, Oocyte
[22] = Inhibition of rat alpha6/alpha3beta4 K57T mutant nAChR expressed in Stage V-VI Xenopus laevis Oocytes assessed as inhibition of acetylcholine-induced current in presence of acetylcholine by electrophysiological recording; format: cell-based; settings: Oocyte
[23] = target: Neuronal acetylcholine receptor; alpha2/beta4 (Rattus norvegicus) (UniProt P12389+P12392); experiment: Inhibition of rat alpha2/beta4 nAChR expressed in Stage V-VI Xenopus laevis Oocytes assessed as inhibition of acetylcholine-induced current at 10 uM in presence of acetylcholine by electrophysiological recording relative to control; format: cell-based; settings: Oocyte
Rattus norvegicus [24] = organism: Rattus norvegicus; experiment: Selectivity index, ratio of IC50 for rat alpha6/alpha3beta4 D161A mutant nAChR expressed in Stage V-VI Xenopus laevis oocytes to IC50 for rat alpha6/alpha3beta4 nAChR expressed in Stage V-VI Xenopus laevis Oocytes by electrophysiological recording; format: cell-based
[25] = target: Neuronal acetylcholine receptor; alpha3/beta4 (Rattus norvegicus, UniProt P04757+P12392); experiment: Inhibition of rat alpha3/beta4 nAChR expressed in Stage V-VI Xenopus laevis Oocytes assessed as inhibition of acetylcholine-induced current in presence of acetylcholine by electrophysiological recording; format: cell-based, Oocyte
Sequence of Neuronal acetylcholine receptor; alpha3/beta4 (P04757 whole entry): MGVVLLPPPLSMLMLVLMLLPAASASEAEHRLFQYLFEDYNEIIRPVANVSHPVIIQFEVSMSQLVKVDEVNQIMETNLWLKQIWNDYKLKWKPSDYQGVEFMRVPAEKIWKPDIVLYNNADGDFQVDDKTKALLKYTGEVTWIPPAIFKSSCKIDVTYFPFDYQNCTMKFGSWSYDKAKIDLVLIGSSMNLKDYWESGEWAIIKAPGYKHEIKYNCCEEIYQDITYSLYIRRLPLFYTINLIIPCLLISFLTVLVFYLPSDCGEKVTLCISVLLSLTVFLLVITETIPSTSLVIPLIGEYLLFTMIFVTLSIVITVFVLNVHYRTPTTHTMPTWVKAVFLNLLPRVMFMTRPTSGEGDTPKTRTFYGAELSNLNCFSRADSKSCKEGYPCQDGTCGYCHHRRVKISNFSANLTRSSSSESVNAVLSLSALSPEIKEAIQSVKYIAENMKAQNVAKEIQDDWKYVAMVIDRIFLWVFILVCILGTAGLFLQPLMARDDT
Sequence of Neuronal acetylcholine receptor; alpha3/beta4 (P12392 whole entry): as the sequence (P12392 whole entry) above

CC(C)[C@H](NC(=O)[C@@H]1CCCN1C(=O)[C@H](CC(N)=O)NC(=O)[C@H](C)NC(=O)[C@H](CS)NC(=O)[C@H](CS)NC(=O)[C@@H](N)CCCNC(=N)N)C(=O)N[C@@H](CS)C(=O)N[C@@H](CC(N)=O)C(=O)NCC(=O)N[C@@H](CCCCN)C(=O)N[C@@H](Cc1cnc[nH]1)C(=O)N[C@@H](CS)C(N)=O (H-RCCANPVCNGKHC-NH2)
inhibition [1]: Active
pIC50 [2]: < 5.00
pIC50 [3]: < 5.00
Ratio IC50 (Rattus norvegicus [4]): 24.7
inhibition [5]: < 50%
pIC50 [6]: < 5.00
TIME [7]: 0.333 h
pIC50 [8]: 7.72
TIME (Oocyte [9]): 0.0167 h
pIC50 [10]: < 5.00
pIC50 [11]: < 5.00
pIC50 [12]: 7.29
Ratio IC50 (Rattus norvegicus [13]): 0.97
TIME (Oocyte [14]): 0.0333 h
pIC50 [15]: 6.33
inhibition [16]: < 50%
Ratio IC50 (Rattus norvegicus [17]): 7
Activity (Oocyte [18]): 22.6%
inhibition (Oocyte [19]): 92.7%
inhibition (Rattus norvegicus [20]): 49.3%
pIC50 [21]: < 5.00
pIC50 [22]: 6.87
inhibition [23]: < 50%
Ratio IC50 (Rattus norvegicus [24]): 3.3
pIC50 [25]: < 5.00

— ChEMBL document CHEMBL5316324, “Discovery, Characterization, and Engineering of LvIC, an α4/4-Conotoxin That Selectively Blocks Rat α6/α3β4 Nicotinic Acetylcholine Receptors” (J Med Chem, 2023)
